Assay results taken from patent US9980919B2, “Preparation of pH-responsive nanoparticles and promoted delivery of anticancer drugs into deep tumor tissues and application thereof” (NATIONAL TSING HUA UNIVERSITY, priority 2015, dated 2018).

Assays:
Format in all cases: in vivo, C57BL/6J mice
TRAMP-C1 tumor [1] = test: ICG fluorescence accumulated in organs and tumor of TRAMP-C1 tumor-bearing mice (IVIS); conditions: 48 hours after tail vein injection; ICG 1.6 mg/kg
Description: (§1) Please refer to FIGS. 12 and 14. […] To establish tumor model, 2×10^7 TRAMP-C1 cells were subcutaneously injected into the right thigh of mice. Two weeks post-inoculation, the low permeability tumor model was established. Tumor volume (V) was calculated as follows: V=L×W^2/2, where W is the tumor measurement at the widest point and L the tumor dimension at the longest point. […] The fluorescence signals of ICG (Ex. 745 nm and Em. 810 nm) at 2, 4, 6, 24 and 48 h post-injection were collected on the IVIS. The treated mice were then sacrificed and the major organs harvested for individual organ imaging by IVIS. After tail vein injection for 48 hours and observation in vivo experiments, the mouse was sacrificed and its major organs and tumors taken for detecting ICG fluorescent performance of each organ using a non-invasive in vivo imaging system (IVIS).

TRAMP-C1 tumor [2] = test: Tumor local temperature under 808 nm NIR laser irradiation (infrared thermal imaging camera); conditions: 6 hours post-injection; 808 nm laser 1.0 W/cm^2, 5 min; ICG 1.6 mg/kg I.V.
Description: (§2) Please refer to FIG. 15. FIG. 15 is a time—temperature figure of the pH-responsive ICG/DOX-loaded NHTPNs of an embodiment in the instant disclosure. […] 6 hours post-injection, the mice (5 in each group) were irradiated at the tumor sites with 808 nm laser (1.0 W/cm^2) for 5 min. The tumor volumes of various groups were measured daily and normalized against the original volumes to assess the antitumor efficacy. The tumor local temperature was monitored by infrared thermal imaging camera.

TRAMP-C1 tumor [3] = test: Tumor growth inhibition (relative tumor volume over 15 days) in TRAMP-C1 tumor-bearing mice; conditions: with NIR laser (+laser)
Description: as §1, §2

- ICG fluorescent expression in the tumor (TRAMP-C1 tumor [1]): no fluorescent expression in the tumor
- organ in which the ICG fluorescence is expressed (TRAMP-C1 tumor [1]): mostly expressed in the liver
SMILES: CC1(C)C(/C=C/C=C/C=C/C=C2\N(CCCCS(=O)(=O)O)c3ccc4ccccc4c3C2(C)C)=[N+](CCCCS(=O)(=O)[O-])c2ccc3ccccc3c21 [Free ICG, indocyanine green]
- highest temperature in the tumor (TRAMP-C1 tumor [2]): 41.4 °C
- tumor growth inhibition effect (TRAMP-C1 tumor [3]): no significant tumor growth inhibition effect
